# Results published in US9770481B2, “Inhibitors of NOX1” (UNIVERSITY OF PITTSBURGH—OF THE COMMONWEALTH SYSTEM OF …, priority 2011, dated 2017).
# “Also recorded” adds a separate entry of the source.
# How the values were obtained:
# [1] = system: rat aortic smooth muscle cells; assay: O2- production by rat aortic smooth muscle cells under static conditions or cyclic stretch; format: cell-based
# Method: FIG. 8. NoxA1ds attenuates stretch-induced O2^− production: Effect of NoxA1ds on O2^− production by rat aortic smooth muscle cells subjected to static conditions or cyclic stretch (10%, 1 Hz, 24 hrs). NoxA1ds was added 4 hrs before measuring O2^− production.
# Cyclic stretching of vascular cells occurs as a result of the pulsatile nature of blood flow but is increased in hypertensive states, and has been associated with generation of ROS and possibly cell proliferation. […] At the end of 24 hrs, cells were lysed and membrane fraction O2^− production was measured using cytochrome c.
# Nox2 = molecular target: T1, Nox2 (Homo sapiens, UniProt P04839); assay: O2- production by lysates of COS cells transfected with Nox2 oxidase, LiDS-stimulated (cytochrome c); format: cell-based; conditions: 0.1 nM to 10,000 nM
# T1 construct: expressed in transfected cells; host or cells: COS22 / COS cells, transient transfection; cell lysates
# T1 sequence (P04839 2-570 limits assumed): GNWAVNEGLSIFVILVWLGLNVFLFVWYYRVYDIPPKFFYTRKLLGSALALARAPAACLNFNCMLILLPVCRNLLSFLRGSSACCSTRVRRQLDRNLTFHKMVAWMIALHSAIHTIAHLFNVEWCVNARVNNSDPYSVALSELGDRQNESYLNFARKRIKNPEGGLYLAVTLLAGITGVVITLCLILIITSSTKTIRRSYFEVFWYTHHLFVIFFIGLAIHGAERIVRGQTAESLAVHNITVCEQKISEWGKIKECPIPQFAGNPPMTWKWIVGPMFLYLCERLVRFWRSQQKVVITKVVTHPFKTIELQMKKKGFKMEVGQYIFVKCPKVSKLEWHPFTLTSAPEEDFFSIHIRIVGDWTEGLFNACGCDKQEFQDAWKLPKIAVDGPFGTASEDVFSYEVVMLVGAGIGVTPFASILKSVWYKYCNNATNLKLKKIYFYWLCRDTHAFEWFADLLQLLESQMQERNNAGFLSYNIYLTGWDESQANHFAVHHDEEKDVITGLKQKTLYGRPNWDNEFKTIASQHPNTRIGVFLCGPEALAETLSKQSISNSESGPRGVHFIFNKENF
# T1 sequence (P13498 1-195 partner): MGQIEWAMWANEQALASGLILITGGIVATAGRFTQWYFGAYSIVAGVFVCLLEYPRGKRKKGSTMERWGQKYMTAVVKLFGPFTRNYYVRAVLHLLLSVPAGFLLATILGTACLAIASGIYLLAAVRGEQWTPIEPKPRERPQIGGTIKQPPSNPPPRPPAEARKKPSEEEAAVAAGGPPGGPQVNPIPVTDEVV
# Method: To test whether the inhibitory effect of NoxA1ds is specific to Nox1, the effect of NoxA1ds was tested on cells expressing Nox2, Nox4, and Nox5 as well as on purified xanthine oxidase enzyme. To test the effect on Nox2, production of O2^− was measured by the reduction of cytochrome c by cell lysates from COS cells transiently transfected with the Nox2 oxidase, stimulated with LiDS, and the treated with increasing concentrations of NoxA1ds (from 0.1 nM to 10,000 nM). Similarly, production of H2O2 was measured by Amplex red fluorescence by COS cells transiently transfected with the Nox4 oxidase and treated with increasing concentrations of NoxA1ds (from 100 nM to 10,000 nM). Production of O2^− was also measured by the reduction of cytochrome c by cell lysates from HEK293 cells stably transfected with the Nox5 oxidase stimulated with Ca^2+, and treated with increasing concentrations of NoxA1ds (from 0.1 nM to 10,000 nM). Finally, production of O2^− was measured by Electron Paramagnetic Resonance from pure xanthine oxidase enzyme preparations, stimulated with hypoxanthine and treated with increasing concentrations of NoxA1ds (from 0.1 nM to 10,000 nM).
# Nox1-YFP = assay: Image cross correlation spectroscopy (ICCS) of R-NoxA1ds and Nox1-YFP; format: binding; conditions: unlabelled competitor
# Method: An ELISA of Nox1:NoxA1ds interaction was performed as follows. Neutravidin coated plates were incubated with biotin-tagged NoxA1ds (Biotin-NoxA1ds) or biotin-tagged SCRMB (Biotin-SCRMB) before addition of cell membranes prepared from cells transfected with Nox1 (Nox1 membrane) or transfected with an empty vector (COS22 membrane). Bound Nox1 was detected through a FITC conjugated secondary antibody (αRabbit Ab Sigma F9887) bound to the Nox1 primary antibody (rabbit αNox1 Ab (SC-25545, Santa Cruz Biotechnology)). FITC fluorescence was expressed as binding as % COS22 membranes on each experimental day. […] To further confirm the association, image cross correlation spectroscopy (ICCS) was used to determine patterns in signal fluctuation between rhodamine-labeled NoxA1ds (R-NoxA1ds) and Nox1-YFP though a sequence of 100 images 0.05 s apart. Correlation and cross-correlation was calculated using an ImageJ plugin.
substance,measurement,setting,value
"H-EPVDALGKAKV-NH2 [NoxA1ds, [NH3^+]-EPVDALGKAKV-[CONH2]]",Cyclic stretch-induced O2- production,"[1]; cyclic stretch 10%, 1 Hz, 24 hrs, peptide added at t=20 hrs (4 hrs before measuring)",completely abrogated; also recorded: inhibited
same,O2- production under static conditions,"[1]; static, 10 μM",negligible effect
same,Inhibitory effect on Nox2 O2- production,Nox2,did not exhibit a significant inhibitory effect
same,Effect of competition with R-NoxA1ds on fractional binding,Nox1-YFP,significantly reduced the fractional binding
